Results: a melting point compilation (Tetko et al.; mined from patent text by program, amines drawn as free bases though some values may be those of a salt)

melting point [°C]	Compound
139 to 140	COC(=O)c1ccc(Cn2nc(OCc3ccccc3)c3ccc(NC(=O)CC4CCCC4)cc32)c(OC)c1
155 to 156	Cc1cc(-c2csc(-c3cccc(C(=O)O)c3)n2)c(C)s1
221 to 222	O=C(Nc1nccs1)c1cccc(-c2ccc3c(c2)C(Nc2ccc(Cl)cc2Cl)CO3)c1 (stereo not given)
75 to 79	COC(=O)COc1ccc(C[C@H](NC(=O)OC(C)(C)C)C(=O)O)cc1
74	COC(=O)Cc1ccc(CNC(=O)C2Cc3ccccc3N2S(=O)(=O)c2ccc(-c3cccc(C(F)(F)F)c3)cc2)cc1 (stereo not given)
125 to 128	CCOC(=O)c1cnn(-c2cccc(Cl)n2)c1S(N)(=O)=O
51 to 53	N#CSCOc1c(Cl)cc(Cl)c(Cl)c1Cl
138 to 140	O=[N+]([O-])c1cc(C(F)(F)F)cc([N+](=O)[O-])c1Nc1c(Cl)cncc1Cl
187 to 188	COc1ccc(-c2cnc(C)[nH]c2=O)cc1OC
184 to 186	CCOC(=O)c1c(CO)c(C)n(C)c1C
263 to 264	COc1cc2c(=O)c(S(C)=O)cn(C)c2cc1F (stereo not given)
328 to 330	N#Cc1cccc(-c2nc(C(N)=O)c3[nH]c(=O)n(-c4ccccc4)c3n2)c1
196	O=C(c1ccc(I)cc1)c1ccc2noc(-c3cccc(Cl)c3)c2c1
152 to 153	Cc1nc(N2CCN(Cc3ccccc3)C2=O)sc1C(=O)NCc1ccc(F)c(F)c1
107 to 110	COc1cc(C=C(C=O)C(C=O)=Cc2ccc(OC(=O)c3ccccc3)c(OC)c2)ccc1OC(=O)c1ccccc1
123 to 125	CCCCCCCNC(=O)Nc1ccccc1C(=O)Nc1c(C(C)C)cccc1C(C)C
218 to 221	Cc1ccc2[nH]c3ccc(C)cc3c2c1
51 to 53	Oc1c(I)cccc1-c1c(Cl)cccc1Cl
108 to 109	COC(=O)CS(=O)CCCCCn1nc(-c2ccccc2)c(-c2ccccc2)c1-c1ccccc1 (stereo not given)
142 to 144	OC(CCCN1CCN(c2noc3ccccc23)CC1)c1ccc(F)cc1 (stereo not given)
86 to 89	CCCCOC(=O)[C@H]1CN(c2cc(F)c(C3CCSCC3)c(F)c2)C(=O)O1
127 to 128	CCc1c(C)nc2cccc(C)n2c1=O
85 to 91	Cc1cc(C)c(-c2nc(Cl)nc(Cl)n2)c(C)c1

melting point [°C]	Compound
99	O=[N+]([O-])c1cc(S(=O)(=O)NCCO)sc1Cl
194 to 196	Fc1ccc2nc[nH]c2c1
60 to 61	COC(=O)c1cc(Cl)cc2c1OCCN2
216 to 219	O=C1COc2cc(F)c(N3N=C4CCCCC4C3=O)cc2N1Cc1ccccn1 (stereo not given)
106 to 108	COC(=O)NCCCn1c(-c2ccc(OC)cc2)csc1=Nc1ccccc1
134 to 136	CCn1c(=O)n(OCc2ccccc2)c(=O)c2cc(F)c(N3CCN(C)CC3)cc21
> 210	NCC1Cc2cccc(-c3ccc(F)c(Cl)c3)c2O1 (stereo not given)
90 to 91	O=C1NC(=O)C(Nc2ccc(CCNCC(O)COc3ccc4ccccc4c3)cc2)S1 (stereo not given)
170 to 172	CS(=O)(=O)Nc1cc([C@@H](O)CNC2CCN(c3ccc(S(=O)(=O)NCC(=O)O)cc3)CC2)ccc1O
209	CC1CC(n2cncc2C(=O)O)c2ccccc21 (stereo not given)
133	O=C(Nc1ccc2ccc(Cl)cc2n1)c1ccccc1
265 to 270	O=C(C=Cc1ccc(-c2ccc(Cl)cc2)cc1)Nc1ccc(CN2CCCCC2)cc1
165 to 166	CC1(c2ccccc2)OC(C=Cc2ccncc2)=CC1=O (stereo not given)
196 to 198	CCOC(=O)CCNC(=O)NC1CCN(c2ccc(C(=N)NOC(=O)OCC(Cl)(Cl)Cl)cc2)C1=O (stereo not given)
211	Cc1cc(-c2ccc(C(F)(F)F)cc2)cn2c(C(=O)O)cnc12
176 to 178	OCc1cnc2c(F)cccc2c1O
166 to 168	Cc1[nH]cnc1/C=C/C(=O)c1c(C)oc2ccccc12
267 to 277	COC(=O)c1cc2cc3[nH]c(=O)oc3cc2[nH]1
148 to 153	CN(C)CCNCCn1nc2c3c(c(NCCNCCO)ccc31)C(=O)c1c(O)ccc(O)c1-2
149 to 150	O=C1c2cccc([N+](=O)[O-])c2C(=O)N1c1ccc(OC(F)(F)F)cc1
209 to 210	Nc1nc2cccnc2c2c1nc(CF)n2CC1(O)CCOC1 (stereo not given)
142	O=C1NCc2ccccc2N1
172 to 174	NC(=O)N1CCC(c2nn(-c3ccc(C(F)(F)F)cc3)c3ccc(F)cc23)CC1

melting point [°C]	Compound
114	NC(=O)CC1CN(Cc2ccccc2)CCN1Cc1ccccc1 (stereo not given)
62 to 64	CCOCCN(C(=O)N(CCCl)N=O)C1(O)C(CO)OC(OC2CCCCC2)C1O (stereo not given)
249 to 251	COc1ccc(S(=O)(=O)N(Cc2cccnc2)c2c(C(=O)O)cnc3cc(C)nn23)cc1
110	Oc1ccc(Oc2ccc(I)cn2)cc1
271 to 273	COc1ccc(C(=O)Nc2nc(=O)c3cnn4c3n2CC=C4c2cccc(C(F)(F)F)c2)cc1
104 to 106	O=c1oc2c(Br)cc(Br)cc2s1
200 to 201	CCOC(=O)C(NC(C)=O)=C(c1ccc(F)cc1)c1ccc(F)cc1
211 to 215	CCc1cc2c(ccc(=O)n2Cc2ccc(Oc3ccccc3CC(=O)O)cc2)c(CC)n1
153 to 155	CCOC(=O)C(=Cc1ccc(-c2nc3ccc(O)cc3o2)cc1)C(=O)OCC
165 to 166	O=C(O)c1cccc(-c2cccc3oc(Cc4cccc(C(F)(F)F)c4)nc23)c1
179	COc1ccc(CCN(C)CCc2ccc(NC(=O)c3cccc4c(=O)c5ccccc5[nH]c34)cc2)cc1
211 to 212	COc1ccc(CSc2nnc(-c3ccc4nccn4c3)o2)cc1C#N
65 to 66	CC(=O)n1cc(-c2cccc(Cl)c2Cl)c(C(F)(F)F)c1
230 to 232	O=C1Cc2c(cccc2C(=O)O)Sc2ccccc21
131	CC1C(C(N)=O)CC2CC1C2(C)C (single isomer, unassigned; (+))
157 to 158	FC(F)(F)c1nc2cc(Cl)c(Cl)cc2nc1-c1nc2ccccc2o1
265 to 275	c1ccc(COc2ccc3nc(-c4ccc(OCc5ccccc5)c(C56CC7CC(CC(C7)C5)C6)c4)[nH]c3c2)cc1
127 to 128	CCOC(=O)Cc1c(-c2ccccc2)c2cc(C)c(C)cc2oc1=O
163 to 165	Cc1ccc(S(=O)(=O)OCCCCCn2c3c(c4ccccc4c2=O)C(=O)c2ccccc2-3)cc1
146 to 147	CN1C(=O)OC[C@@H]1Cc1ccc([N+](=O)[O-])cc1
92	COC(=O)c1c(C)c(O)cc(OC)c1Cl
145 to 146	COc1ccc(COc2ccc(NC(C)=O)cc2C(=O)C=Cc2ccc(OCc3ccccc3)c(OCc3ccccc3)c2)cc1

Compound	melting point [°C]
CN1C(=O)N(C)P(C)(=S)C1=O (stereo not given)	95
CNC(=O)c1ccc2[nH]cc(C3=CCN(C)CC3)c2c1	125 to 135
